Assay results published in ChEMBL document CHEMBL5665443, “Enzyme Inhibitor Single Concentration assay results for EUbOPEN Chemogenomics Library” (2024).

Tests used:
[1] = molecular target: N-glycosylase/DNA lyase (Homo sapiens) (UniProt O15527); settings: Hit No;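 also: OGG1 cleavage of a quenched duplex DNA oligonucleotide, coupled to APE1 for strand incision, read as fluorescence at 594 nm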
Description: Inhibition of OGG1 by quantifying inhibition of OGG1-mediated cleavage and dissociation of quenched duplex DNA oligonucleotides, measured as fluorescence at 594 nm. To generate a functional strand incision and increase turn-over this assay is coupled to APE1.

[2] = molecular target: G/T mismatch-specific thymine DNA glycosylase (Homo sapiens) (UniProt Q13569); settings: Hit No;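 also: human TDG cleavage of quenched duplex DNA oligonucleotides coupled to APE1, strand release read as fluorescence at 594 nm, inhibition of TDG activity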
Chain of G/T mismatch-specific thymine DNA glycosylase (Homo sapiens) (Q13569 whole entry): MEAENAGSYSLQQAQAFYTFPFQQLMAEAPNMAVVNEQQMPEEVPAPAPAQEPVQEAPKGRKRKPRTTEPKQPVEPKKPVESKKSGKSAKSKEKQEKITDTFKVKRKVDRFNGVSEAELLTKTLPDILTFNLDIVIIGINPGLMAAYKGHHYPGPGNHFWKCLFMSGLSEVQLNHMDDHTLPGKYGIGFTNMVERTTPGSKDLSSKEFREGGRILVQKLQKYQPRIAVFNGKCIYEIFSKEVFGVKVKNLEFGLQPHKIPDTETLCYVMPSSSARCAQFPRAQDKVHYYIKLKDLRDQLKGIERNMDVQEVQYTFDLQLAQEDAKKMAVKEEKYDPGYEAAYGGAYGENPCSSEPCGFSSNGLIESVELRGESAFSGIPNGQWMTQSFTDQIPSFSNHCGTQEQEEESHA
Description: Inhibition of TDG by quantifying inhibition of TDG-mediated cleavage and dissociation of quenched duplex DNA oligonucleotides, measured as fluorescence at 594 nm. To generate a functional strand incision and increase turn-over this assay is coupled to APE1.

[3] = molecular target: Endonuclease 8-like 1 (Homo sapiens) (UniProt Q96FI4); settings: Hit No;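 also: fluorescence at 594 nm from quenched duplex DNA oligonucleotides released by NEIL1 cleavage and strand separation, reported as reduction of this enzyme activity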
Chain of Endonuclease 8-like 1 (Homo sapiens) (Q96FI4 whole entry, the tested form may be a part): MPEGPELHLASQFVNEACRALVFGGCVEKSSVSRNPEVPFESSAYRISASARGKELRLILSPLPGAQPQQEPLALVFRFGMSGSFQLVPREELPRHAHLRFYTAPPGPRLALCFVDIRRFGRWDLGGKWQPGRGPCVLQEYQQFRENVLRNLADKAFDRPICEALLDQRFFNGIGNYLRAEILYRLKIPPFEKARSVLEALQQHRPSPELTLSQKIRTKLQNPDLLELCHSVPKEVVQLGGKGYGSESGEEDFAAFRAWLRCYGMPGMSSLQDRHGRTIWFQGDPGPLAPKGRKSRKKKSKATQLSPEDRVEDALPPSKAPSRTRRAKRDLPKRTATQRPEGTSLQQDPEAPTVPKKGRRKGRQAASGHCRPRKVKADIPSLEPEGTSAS
Description: Inhibition of NEIL1 by quantifying inhibition of NEIL1-mediated cleavage and dissociation of quenched duplex DNA oligonucleotides, measured as fluorescence at 594 nm.

[4] = molecular target: Methyl-CpG-binding domain protein 4 (Homo sapiens) (UniProt O95243); settings: Hit No;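 also: MBD4 activity read as fluorescence at 594 nm from cleavage and release of a quenched duplex DNA oligonucleotide, with APE1 coupled to incise the strand and raise turnover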
Chain of Methyl-CpG-binding domain protein 4 (Homo sapiens) (O95243 whole entry, the tested form may be a part): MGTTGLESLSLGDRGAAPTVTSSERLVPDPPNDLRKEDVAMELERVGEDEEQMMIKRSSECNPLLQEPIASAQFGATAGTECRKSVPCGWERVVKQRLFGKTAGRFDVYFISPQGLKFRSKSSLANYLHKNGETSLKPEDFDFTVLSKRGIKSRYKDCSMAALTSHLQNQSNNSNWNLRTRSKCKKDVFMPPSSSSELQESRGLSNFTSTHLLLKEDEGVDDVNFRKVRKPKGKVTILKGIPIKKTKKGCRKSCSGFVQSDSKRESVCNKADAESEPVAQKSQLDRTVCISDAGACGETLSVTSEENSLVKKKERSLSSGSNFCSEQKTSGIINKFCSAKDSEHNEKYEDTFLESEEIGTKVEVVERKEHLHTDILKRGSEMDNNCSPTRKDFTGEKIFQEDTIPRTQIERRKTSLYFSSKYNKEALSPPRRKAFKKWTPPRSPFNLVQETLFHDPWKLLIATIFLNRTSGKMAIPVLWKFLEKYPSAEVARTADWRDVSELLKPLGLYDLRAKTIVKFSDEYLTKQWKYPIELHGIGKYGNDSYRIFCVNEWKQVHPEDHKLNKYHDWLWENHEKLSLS
Description: Inhibition of MBD4 by quantifying inhibition of MBD4-mediated cleavage and dissociation of quenched duplex DNA oligonucleotides, measured as fluorescence at 594 nm. To generate a functional strand incision and increase turn-over this assay is coupled to APE1.

[5] = molecular target: Uracil-DNA glycosylase (Homo sapiens) (UniProt P13051); settings: Hit No;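 also: UNG excision on a quenched double-stranded DNA oligo probe, with APE1 added for strand incision and turnover, read as fluorescence at 594 nm as strands separate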
Chain of Uracil-DNA glycosylase (Homo sapiens) (P13051 whole entry): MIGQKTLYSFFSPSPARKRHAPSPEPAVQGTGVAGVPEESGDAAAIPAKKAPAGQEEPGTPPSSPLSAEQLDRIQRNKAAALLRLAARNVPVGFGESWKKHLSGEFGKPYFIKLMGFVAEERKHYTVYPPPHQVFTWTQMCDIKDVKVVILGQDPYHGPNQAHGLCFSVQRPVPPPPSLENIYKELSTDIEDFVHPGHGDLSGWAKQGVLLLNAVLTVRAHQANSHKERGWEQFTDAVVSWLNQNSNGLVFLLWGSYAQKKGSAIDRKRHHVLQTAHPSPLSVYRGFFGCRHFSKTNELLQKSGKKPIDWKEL
Description: Inhibition of UNG by quantifying inhibition of UNG-mediated cleavage and dissociation of quenched duplex DNA oligonucleotides, measured as fluorescence at 594 nm. To generate a functional strand incision and increase turn-over this assay is coupled to APE1.

[6] = molecular target: T1, Single-strand selective monofunctional uracil DNA glycosylase (Homo sapiens) (UniProt Q53HV7); settings: Hit No;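 also: enzymatic SMUG1 assay coupled with APE1, reading fluorescence at 594 nm released when a quenched double-stranded DNA oligonucleotide substrate is cleaved and separated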
T1 sequence (whole entry): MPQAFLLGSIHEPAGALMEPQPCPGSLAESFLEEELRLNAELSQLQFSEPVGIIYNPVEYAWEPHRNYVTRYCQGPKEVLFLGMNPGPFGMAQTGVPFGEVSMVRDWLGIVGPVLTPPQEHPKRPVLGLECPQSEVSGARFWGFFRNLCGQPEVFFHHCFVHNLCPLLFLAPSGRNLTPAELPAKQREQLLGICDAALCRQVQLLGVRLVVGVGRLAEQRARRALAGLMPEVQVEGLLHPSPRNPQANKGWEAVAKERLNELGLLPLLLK
Description: Inhibition of SMUG1 by quantifying inhibition of SMUG1-mediated cleavage and dissociation of quenched duplex DNA oligonucleotides, measured as fluorescence at 594 nm. To generate a functional strand incision and increase turn-over this assay is coupled to APE1.

[7] = molecular target: T2, Endonuclease 8-like 2 (Homo sapiens) (UniProt Q969S2);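 also: fluorescence at 594 nm reports NEIL2 cutting and release of a quenched double-stranded DNA oligo substrate, reduced signal read as inhibition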
T2 sequence (whole entry): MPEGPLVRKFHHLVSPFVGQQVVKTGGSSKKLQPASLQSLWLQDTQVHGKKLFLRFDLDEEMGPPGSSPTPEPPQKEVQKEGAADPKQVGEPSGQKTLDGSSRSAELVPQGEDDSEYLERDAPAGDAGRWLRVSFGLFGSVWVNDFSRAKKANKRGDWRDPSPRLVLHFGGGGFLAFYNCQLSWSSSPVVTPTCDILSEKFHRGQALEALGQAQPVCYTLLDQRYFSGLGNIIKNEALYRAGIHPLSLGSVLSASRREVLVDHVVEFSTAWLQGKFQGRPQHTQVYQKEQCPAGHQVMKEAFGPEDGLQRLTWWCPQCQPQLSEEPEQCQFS
Description: Inhibition of NEIL2 by quantifying inhibition of NEIL2-mediated cleavage and dissociation of quenched duplex DNA oligonucleotides, measured as fluorescence at 594 nm.

[8] = molecular target: T3, Adenine DNA glycosylase (Homo sapiens) (UniProt Q9UIF7); settings: Hit No;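 also: human MUTYH activity read as 594 nm fluorescence from cleavage and release of a quenched DNA duplex, coupled with APE1 for strand incision, lower signal meaning inhibition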
T3 sequence (whole entry): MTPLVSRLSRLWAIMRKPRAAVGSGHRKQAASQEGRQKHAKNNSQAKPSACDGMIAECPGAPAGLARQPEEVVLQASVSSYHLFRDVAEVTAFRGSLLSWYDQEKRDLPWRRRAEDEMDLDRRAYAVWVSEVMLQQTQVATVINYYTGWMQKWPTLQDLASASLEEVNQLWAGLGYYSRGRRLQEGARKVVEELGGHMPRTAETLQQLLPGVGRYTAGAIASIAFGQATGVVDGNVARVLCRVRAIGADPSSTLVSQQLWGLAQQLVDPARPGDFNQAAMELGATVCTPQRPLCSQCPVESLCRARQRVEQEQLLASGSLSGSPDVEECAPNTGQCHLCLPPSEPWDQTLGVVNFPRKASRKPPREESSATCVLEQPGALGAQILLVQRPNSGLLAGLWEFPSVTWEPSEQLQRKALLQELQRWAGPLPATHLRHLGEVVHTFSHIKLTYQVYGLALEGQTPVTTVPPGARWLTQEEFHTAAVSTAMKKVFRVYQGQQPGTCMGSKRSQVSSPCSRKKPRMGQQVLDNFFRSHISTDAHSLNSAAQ
Description: Inhibition of MUTYH by quantifying inhibition of MUTYH-mediated cleavage and dissociation of quenched duplex DNA oligonucleotides, measured as fluorescence at 594 nm. To generate a functional strand incision and increase turn-over this assay is coupled to APE1.

[9] = Compound Concentration 10.0 uM, Hit No
[10] = Compound Concentration 1.0 uM, Hit No

Chain of N-glycosylase/DNA lyase (Homo sapiens) (O15527 whole entry): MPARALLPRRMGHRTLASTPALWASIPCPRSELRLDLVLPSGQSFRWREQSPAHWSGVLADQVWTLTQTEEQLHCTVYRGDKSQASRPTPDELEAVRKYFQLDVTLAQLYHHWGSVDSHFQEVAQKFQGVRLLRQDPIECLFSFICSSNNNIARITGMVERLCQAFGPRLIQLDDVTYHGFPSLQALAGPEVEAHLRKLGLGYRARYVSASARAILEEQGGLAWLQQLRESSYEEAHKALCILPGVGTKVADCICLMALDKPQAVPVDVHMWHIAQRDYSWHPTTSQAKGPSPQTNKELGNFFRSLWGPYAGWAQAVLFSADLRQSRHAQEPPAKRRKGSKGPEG

SMILES	inhibition ([1]; Compound Concentration 10.0 uM)	inhibition ([2]; Compound Concentration 10.0 uM)	inhibition ([3]; Compound Concentration 10.0 uM)	inhibition ([4]; Compound Concentration 10.0 uM)	inhibition ([5]; Compound Concentration 10.0 uM)	inhibition ([6]; Compound Concentration 10.0 uM)	inhibition [7, 9]	inhibition ([8]; Compound Concentration 10.0 uM)	inhibition ([1]; Compound Concentration 1.0 uM)	inhibition ([2]; Compound Concentration 1.0 uM)	inhibition ([3]; Compound Concentration 1.0 uM)	inhibition ([4]; Compound Concentration 1.0 uM)	inhibition ([5]; Compound Concentration 1.0 uM)	inhibition ([6]; Compound Concentration 1.0 uM)	inhibition [7, 10]	inhibition ([8]; Compound Concentration 1.0 uM)	inhibition ([7]; Compound Concentration 10.0 uM, Hit Yes)
O=S(=O)(Nc1ccc(C(O)(C(F)(F)F)C(F)(F)F)cc1)c1cccs1	9.18%	99.8%	-9.23%	63.6%	4.47%	19.9%	-2.02%	12.6%									
CC(=O)Nc1nc(C)c(S(=O)(=O)Nc2ccc(C(O)(C(F)(F)F)C(F)(F)F)cc2)s1	9.77%	98.2%	1.83%	60.1%	5.29%	23%	2.83%	13.4%									
NS(=O)(=O)c1cc(NC(=O)Cc2ccccc2)ccc1Oc1cccc(Cl)c1	16.9%	87.5%	-8.47%	54.5%	6.44%	25.9%	-2.53%	-0.214%									
N[C@@H]1CCCN(c2c(/C=C3\SC(=O)NC3=O)cccc2-c2ccccc2)C1									16.9%	64.1%	-5.54%	5.7%	7.16%	28.4%	1.04%	3.22%	
Cn1cc(Nc2nccc(N3CC4CCC(C3)N4C(=O)[C@@H]3CC3(F)F)n2)cn1	-0.945%	35.9%	0.138%	-6.61%	-0.791%	8.21%	-8.92%	-8.86%									
OCCOCCN1CCN(C(c2ccccc2)c2ccc(Cl)cc2)CC1 (configuration not stated)	-2.03%	3.31%	4.39%	1.54%	-3.83%	2.34%	-2.98%	-3.56%									
Nc1c(C(=O)NCc2ccc(C(=O)NCCCC3CCCCC3)cc2)cnn1-c1ccccc1	19.8%	35.6%			4.78%	-1.31%		5.04%	3.23%	47%	-2.11%	59.9%	-7.24%	3.4%	-8.91%		
O=C(N[C@H]1CCCCC/C=C\C2C[C@@]2(C(=O)O)NC(=O)[C@@H]2C[C@@H](Oc3ccncc3)CN2C1=O)OC1CCCC1 (some centres not stated)	25.2%	61.5%	2.74%	61.8%	4.34%	20%	-0.999%	1.97%									
CCCOc1ccc([C@@H]2[C@@H](C(=O)O)[C@H](c3ccc4c(c3)OCO4)CN2CC(=O)Nc2c(CC)cccc2CC)cc1									12%	57.1%	-3.17%	66.2%	4.27%	18.8%	9.71%	-8.3%	
CN1CCN(c2cnc3c(C4CCN(C(=O)c5ccc(OC(F)(F)F)cc5N)CC4)ncnc3c2)CC1	-1.54%	43.6%	-2.58%	22.6%	5.02%	11.7%	-8.19%	2.58%									
Cc1nc(C#Cc2cccnc2)cs1	-7.91%	4.62%	1.49%	-0.814%	-6.91%	-8.43%	-1.88%	5.76%									
O=C(NNS(=O)(=O)c1ccccc1)c1cc(-c2ccnnc2)ccc1F	8.54%	49.7%	-4.38%	88.3%	6.08%	13.8%	5.38%	0.332%									
CC1CCN(c2ccnc(NCc3cn(C)cn3)n2)CC1	19.9%	50.4%	1.98%	67.6%	5.91%	15.3%	3.08%	19.8%									
Nc1cnc(N2CCc3cc(S(=O)(=O)Nc4c(F)cc(Cl)cc4F)cc(N4CCCC4=O)c32)nc1									0.18%	41.3%	-8.47%	55.9%	-1.59%	6.61%	-0.999%	-0.378%	
CC(=O)c1c(C)c2cnc(Nc3ccc(N4CCNCC4)cn3)nc2n(C2CCCC2)c1=O									4.49%	39.5%	8.59%	-1.7%	3.08%	19.2%	2.12%	37.5%	
CNC(=O)Nc1ccc2c(c1)[C@@]1(CC2)OC(=O)N(CC(=O)N(Cc2ccc(F)cc2)[C@@H](C)C(F)(F)F)C1=O									-0.951%	98.8%	-6.35%	67.4%	4.4%	22.4%	-2.53%	0.0592%	
Cc1nc(Cc2cccc(C(F)(F)F)c2)sc1-c1ccc(C(N)=O)nc1									0.0328%	96.5%	-5.59%	52%	-0.747%	6%	-3.29%	-2.4%	
CCN(Cc1ccc(Cl)cc1)c1ncc(C(=O)NCCCN2CCCC2=O)c(NC2CCCC2)n1	-2.04%	63.4%	-2.37%	-8.97%	8.58%	17.5%	-8.65%	3.34%									
CNCc1ccccc1-c1csc([C@@H](C)Nc2nc(C)nc3cc(OC)c(OC)cc23)c1	16.5%	66.2%	-5.89%	8.88%	14.2%	5.31%		19.2%									38%
O=C(Nc1ccc(C(O)(C(F)(F)F)C(F)(F)F)cc1)c1ccc(C(F)(F)F)cc1	30.3%	98%	-5.59%	54.8%	11.1%	23.5%	-7.89%	3.77%									
CC[C@H](CO)Nc1nc(NCc2ccccc2)c2ncn(C(C)C)c2n1	-9.3%	38.4%	6.48%	-1.52%	0.726%	-5.13%	-5.42%	-2.91%									
O=C(NC[C@@H]1[C@H]2CN(C(=O)OCc3cc(C(F)(F)F)cc(C(F)(F)F)c3)C[C@@H]12)c1ccc2[nH]nnc2c1	19.9%	43.8%	-8.32%	48.7%	-1.24%	8.85%	-6.36%	-6.99%									
O=C(Nc1nc2cccc(-c3ccc(CN4CCS(=O)(=O)CC4)cc3)n2n1)C1CC1	1.15%	66.4%	-4.22%	-0.894%	2.98%	27.3%	-1.92%	3.59%									
CCC(C)N(C)C(=O)c1cc2ccccc2c(-c2ccccc2Cl)n1 (configuration not stated)	15.1%	99.2%	-9.53%	67%	7.72%	22.8%	3.59%	1.15%									
CN(C)[C@H]1CCN(c2cc(-c3ccccc3)nc3ccnn23)C1	10.6%	49%	6.98%	77.8%	9.72%	13.5%	9.71%	15.6%									
Cc1cc(-c2ccnc(Nc3cnn(C)c3)n2)ccc1CNC(=O)N1CC(OC(C)C)C1	9.56%	44.6%	-3.03%	12.6%	4.16%	28.1%	-6.23%	22.5%									
